The values that follow come from US8063208B2, “Crystalline forms of (3R,4R)-4-amino-1-[[4-[(3-methoxyphenyl)amino]pyrrolo[2,1-f][1,2,4]triazin-5-yl]methyl]piperidin-3-ol” (Bristol-Myers Squibb Company, priority 2006, dated 2011).

One data set deals with HER1 (Homo sapiens, UniProt P00533). The experiment in a line: HER1 tyrosine kinase inhibition. It counts as biochemical.
For a further data set, the target named is HER2 (Homo sapiens, UniProt P04626). The experiment in a line: HER2 tyrosine kinase inhibition. The class given is biochemical.
Sequence of HER2 (P04626 23-1255): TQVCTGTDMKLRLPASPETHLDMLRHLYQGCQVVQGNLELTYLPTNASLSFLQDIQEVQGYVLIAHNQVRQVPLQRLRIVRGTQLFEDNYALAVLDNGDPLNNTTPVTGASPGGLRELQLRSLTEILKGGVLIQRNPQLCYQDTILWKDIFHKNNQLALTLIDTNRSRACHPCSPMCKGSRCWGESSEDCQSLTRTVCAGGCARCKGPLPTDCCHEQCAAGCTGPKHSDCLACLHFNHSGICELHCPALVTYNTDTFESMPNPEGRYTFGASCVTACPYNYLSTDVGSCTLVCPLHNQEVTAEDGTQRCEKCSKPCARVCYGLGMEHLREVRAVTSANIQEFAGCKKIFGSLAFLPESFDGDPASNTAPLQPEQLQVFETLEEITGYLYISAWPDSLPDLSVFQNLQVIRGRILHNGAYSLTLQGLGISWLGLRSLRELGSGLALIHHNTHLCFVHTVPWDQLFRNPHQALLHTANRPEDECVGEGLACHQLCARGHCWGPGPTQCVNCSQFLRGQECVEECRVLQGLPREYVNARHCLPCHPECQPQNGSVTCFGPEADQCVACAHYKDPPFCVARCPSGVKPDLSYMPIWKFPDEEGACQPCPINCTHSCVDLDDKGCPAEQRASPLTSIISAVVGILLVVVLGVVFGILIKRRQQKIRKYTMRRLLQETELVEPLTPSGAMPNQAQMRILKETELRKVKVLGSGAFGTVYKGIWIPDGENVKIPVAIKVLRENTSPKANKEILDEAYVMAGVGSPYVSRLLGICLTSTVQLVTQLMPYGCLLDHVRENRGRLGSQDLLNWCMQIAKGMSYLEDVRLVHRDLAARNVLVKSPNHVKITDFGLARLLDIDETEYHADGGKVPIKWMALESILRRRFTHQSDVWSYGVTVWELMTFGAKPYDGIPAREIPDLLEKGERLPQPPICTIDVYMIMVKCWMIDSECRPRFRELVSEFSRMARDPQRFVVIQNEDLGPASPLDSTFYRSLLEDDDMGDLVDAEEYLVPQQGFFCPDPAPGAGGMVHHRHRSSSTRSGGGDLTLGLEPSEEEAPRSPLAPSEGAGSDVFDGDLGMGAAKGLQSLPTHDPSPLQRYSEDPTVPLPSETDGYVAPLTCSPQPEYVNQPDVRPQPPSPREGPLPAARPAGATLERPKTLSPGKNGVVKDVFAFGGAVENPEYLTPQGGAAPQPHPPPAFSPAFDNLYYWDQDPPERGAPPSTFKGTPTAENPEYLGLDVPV
A further data set concerns the target HER4 (Homo sapiens, UniProt Q15303). The experiment in a line: HER4 tyrosine kinase inhibition. It counts as biochemical.
The target in another data set is VEGFR2 (Homo sapiens, UniProt P35968). The experiment in a line: VEGFR2 inhibition. It counts as biochemical.
Sequence of VEGFR2 (P35968 20-1356, species assumed): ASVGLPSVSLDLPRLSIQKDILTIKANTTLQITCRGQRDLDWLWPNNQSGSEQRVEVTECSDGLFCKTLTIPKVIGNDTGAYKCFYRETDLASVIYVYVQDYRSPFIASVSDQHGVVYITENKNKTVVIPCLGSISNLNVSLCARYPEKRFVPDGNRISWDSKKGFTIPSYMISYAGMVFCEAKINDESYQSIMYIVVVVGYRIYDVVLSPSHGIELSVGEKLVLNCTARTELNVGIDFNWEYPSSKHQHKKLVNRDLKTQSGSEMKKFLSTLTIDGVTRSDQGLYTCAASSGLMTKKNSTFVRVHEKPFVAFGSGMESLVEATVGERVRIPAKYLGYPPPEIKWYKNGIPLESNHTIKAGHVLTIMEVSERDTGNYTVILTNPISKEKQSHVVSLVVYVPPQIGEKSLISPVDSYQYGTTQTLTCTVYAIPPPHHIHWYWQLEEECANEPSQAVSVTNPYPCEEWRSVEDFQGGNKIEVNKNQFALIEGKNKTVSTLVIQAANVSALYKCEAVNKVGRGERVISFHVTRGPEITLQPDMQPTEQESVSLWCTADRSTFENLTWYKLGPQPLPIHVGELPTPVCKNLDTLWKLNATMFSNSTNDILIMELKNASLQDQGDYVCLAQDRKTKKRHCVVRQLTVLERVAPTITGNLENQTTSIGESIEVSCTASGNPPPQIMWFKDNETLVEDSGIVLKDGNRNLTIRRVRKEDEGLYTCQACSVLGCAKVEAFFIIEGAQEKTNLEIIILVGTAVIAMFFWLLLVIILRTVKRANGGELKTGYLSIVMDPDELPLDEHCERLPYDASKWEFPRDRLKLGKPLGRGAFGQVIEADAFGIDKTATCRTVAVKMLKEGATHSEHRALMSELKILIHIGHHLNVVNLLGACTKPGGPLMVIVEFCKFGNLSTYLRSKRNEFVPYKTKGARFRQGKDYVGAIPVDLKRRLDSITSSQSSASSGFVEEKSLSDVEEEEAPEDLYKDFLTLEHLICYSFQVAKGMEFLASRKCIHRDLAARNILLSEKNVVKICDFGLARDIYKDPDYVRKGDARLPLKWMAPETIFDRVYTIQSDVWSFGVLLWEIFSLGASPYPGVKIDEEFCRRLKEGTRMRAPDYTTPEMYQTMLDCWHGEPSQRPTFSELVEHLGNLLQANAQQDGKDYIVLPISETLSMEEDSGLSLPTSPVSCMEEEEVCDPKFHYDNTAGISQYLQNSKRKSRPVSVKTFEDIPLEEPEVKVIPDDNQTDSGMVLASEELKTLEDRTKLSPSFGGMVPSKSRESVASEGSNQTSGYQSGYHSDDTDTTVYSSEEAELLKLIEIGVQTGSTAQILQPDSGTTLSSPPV
The test system of a further data set is various tumor cell lines. Briefly: Antiproliferative activity in tumor cell lines. It counts as cell-based.
Data set [1] has as its system HER2 and HER1 driven tumor xenograft models. The experiment in a line: Anti-tumor efficacy in tumor xenograft models. The class given is in vivo.
Data set [2] in a line: Form conversion on heating (melt/recrystallization). Particulars: melts at about 137° C. The class given is physicochemical. As for the experimental part: Differential scanning calorimetry (DSC) experiments were performed in a TA Instruments™ model Q1000 or 2920. The sample (about 2-6 mg) was weighed in an aluminum pan and recorded accurately recorded to a hundredth of a milligram, and transferred to the DSC. The instrument was purged with nitrogen gas at 50 mL/min. Data were collected between room temperature and 300° C. at 10° C./min heating rate. The plot was made with the endothermic peaks pointing down.

Data set [3] is described as follows: Relative thermodynamic stability of crystalline forms. Particulars: temperatures from room temperature to 50° C. The class given is physicochemical.
Data set [4] is described as follows: Slurry conversion of mixtures of forms. It counts as physicochemical. Particulars: slurried mixtures of N-1 and N-2 convert to Form N-2.

Sequence of HER1 (P00533 25-1210): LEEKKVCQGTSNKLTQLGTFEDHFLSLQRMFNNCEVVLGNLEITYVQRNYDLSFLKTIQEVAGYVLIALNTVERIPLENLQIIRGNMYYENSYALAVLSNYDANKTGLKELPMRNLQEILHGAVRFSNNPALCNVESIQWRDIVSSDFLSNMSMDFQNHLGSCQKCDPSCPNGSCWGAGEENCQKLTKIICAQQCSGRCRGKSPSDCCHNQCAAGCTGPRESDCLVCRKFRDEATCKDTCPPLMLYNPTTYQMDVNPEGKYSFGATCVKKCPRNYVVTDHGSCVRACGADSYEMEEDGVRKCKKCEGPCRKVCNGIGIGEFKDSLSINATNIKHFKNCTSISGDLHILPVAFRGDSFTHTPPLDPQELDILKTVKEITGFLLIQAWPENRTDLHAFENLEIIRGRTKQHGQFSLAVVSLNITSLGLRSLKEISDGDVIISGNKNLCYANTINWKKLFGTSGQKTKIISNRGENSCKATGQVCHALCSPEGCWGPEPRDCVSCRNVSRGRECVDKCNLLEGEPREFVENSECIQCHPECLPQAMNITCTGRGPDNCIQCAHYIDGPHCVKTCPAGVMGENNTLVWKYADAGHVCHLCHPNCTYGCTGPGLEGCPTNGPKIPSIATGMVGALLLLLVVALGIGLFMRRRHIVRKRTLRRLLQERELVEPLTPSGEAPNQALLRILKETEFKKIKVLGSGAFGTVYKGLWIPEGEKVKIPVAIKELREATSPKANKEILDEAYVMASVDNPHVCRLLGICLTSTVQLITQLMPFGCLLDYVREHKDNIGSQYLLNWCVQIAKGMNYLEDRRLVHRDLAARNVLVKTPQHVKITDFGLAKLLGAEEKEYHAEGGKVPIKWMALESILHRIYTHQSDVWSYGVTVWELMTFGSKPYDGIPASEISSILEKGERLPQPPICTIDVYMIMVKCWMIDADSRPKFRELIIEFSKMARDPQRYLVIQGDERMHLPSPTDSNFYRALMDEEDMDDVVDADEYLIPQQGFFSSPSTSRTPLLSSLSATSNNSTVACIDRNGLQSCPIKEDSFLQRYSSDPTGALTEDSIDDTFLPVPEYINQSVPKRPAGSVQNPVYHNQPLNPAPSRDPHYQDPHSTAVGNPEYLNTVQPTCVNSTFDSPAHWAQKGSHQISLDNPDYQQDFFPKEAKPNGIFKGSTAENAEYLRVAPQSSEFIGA
Sequence of HER4 (Q15303 26-1308): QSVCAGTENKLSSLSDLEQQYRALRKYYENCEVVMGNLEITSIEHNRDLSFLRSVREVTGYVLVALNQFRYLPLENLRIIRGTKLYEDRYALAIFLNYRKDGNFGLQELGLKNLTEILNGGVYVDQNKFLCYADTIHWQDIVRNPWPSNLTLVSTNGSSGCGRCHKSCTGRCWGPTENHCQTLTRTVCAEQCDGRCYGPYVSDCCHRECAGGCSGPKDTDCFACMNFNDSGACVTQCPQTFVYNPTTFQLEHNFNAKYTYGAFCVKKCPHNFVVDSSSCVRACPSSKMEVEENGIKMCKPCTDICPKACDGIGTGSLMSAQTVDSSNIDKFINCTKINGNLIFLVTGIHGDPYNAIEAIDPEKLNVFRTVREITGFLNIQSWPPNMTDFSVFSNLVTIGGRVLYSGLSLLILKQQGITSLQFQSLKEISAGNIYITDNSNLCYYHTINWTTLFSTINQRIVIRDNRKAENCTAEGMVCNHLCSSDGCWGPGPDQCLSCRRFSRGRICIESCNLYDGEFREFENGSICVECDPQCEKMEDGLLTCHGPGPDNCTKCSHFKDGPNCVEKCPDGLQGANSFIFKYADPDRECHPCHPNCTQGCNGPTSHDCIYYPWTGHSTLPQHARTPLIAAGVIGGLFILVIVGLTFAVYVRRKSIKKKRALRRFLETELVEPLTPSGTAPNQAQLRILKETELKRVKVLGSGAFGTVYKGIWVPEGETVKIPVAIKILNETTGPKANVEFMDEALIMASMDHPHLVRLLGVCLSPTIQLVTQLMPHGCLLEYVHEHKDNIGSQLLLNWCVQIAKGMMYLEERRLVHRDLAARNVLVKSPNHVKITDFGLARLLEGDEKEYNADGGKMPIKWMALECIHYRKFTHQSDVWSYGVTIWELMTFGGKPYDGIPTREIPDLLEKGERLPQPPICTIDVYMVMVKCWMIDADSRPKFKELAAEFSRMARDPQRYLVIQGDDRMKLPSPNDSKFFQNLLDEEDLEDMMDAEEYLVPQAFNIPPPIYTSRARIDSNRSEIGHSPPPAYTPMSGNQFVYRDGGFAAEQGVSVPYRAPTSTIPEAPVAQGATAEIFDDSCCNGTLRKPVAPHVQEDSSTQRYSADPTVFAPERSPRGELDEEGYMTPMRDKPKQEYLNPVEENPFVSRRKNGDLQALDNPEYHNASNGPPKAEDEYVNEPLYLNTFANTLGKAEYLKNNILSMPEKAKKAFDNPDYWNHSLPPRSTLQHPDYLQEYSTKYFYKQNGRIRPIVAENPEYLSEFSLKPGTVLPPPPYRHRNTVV

Consider `COc1cccc(Nc2ncnn3ccc(CN4CC[C@@H](N)[C@H](O)C4)c23)c1` [Compound I, (3R,4R)-4-amino-1-[[4-[(3-methoxyphenyl)amino]pyrrolo[2,1-f][1,2,4]triazin-5-yl]methyl]piperidin-3-ol], for which the “inhibition of HER1” value against HER1 was “potent inhibitor”. Moreover, on HER2, the “inhibition of HER2” value is “potent inhibitor”. Also, the “inhibition of HER4” value against HER4 is “potent inhibitor”. For the same compound, the “inhibition of VEGFR2” value at VEGFR2 is reported as “potent inhibitor”. For the same compound, the antiproliferative activity entry in the data set with various tumor cell lines was “broad antiproliferative activity”. Also, the anti-tumor efficacy entry in [1] is on record as “excellent anti-tumor efficacy”.
For the compound `COc1cccc(Nc2ncnn3ccc(CN4CC[C@@H](N)[C@H](O)C4)c23)c1` [Form N-1, (3R,4R)-4-amino-1-[[4-[(3-methoxyphenyl)amino]pyrrolo[2,1-f][1,2,4]triazin-5-yl]methyl]piperidin-3-ol], the “solid form conversion after melting” value in data set [2] is given as “recrystallizes as Form N-2”.
As to `COc1cccc(Nc2ncnn3ccc(CN4CC[C@@H](N)[C@H](O)C4)c23)c1` [Form N-2, (3R,4R)-4-amino-1-[[4-[(3-methoxyphenyl)amino]pyrrolo[2,1-f][1,2,4]triazin-5-yl]methyl]piperidin-3-ol], the “thermodynamic stability relative to other form” value in data set [3] was “more thermodynamically stable than Form N-1”. In addition, in [4], the “stability relationship from slurried mixtures of N-1 and N-2” value is “monotropically more stable”.
